In ChEMBL document CHEMBL1201862, “PubChem BioAssay data set” (2004):
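Where inhibition never reached the appropriate level, the endpoint shown equals the highest concentration tested. Otherwise, values were interpolated linearly from a five-concentration, 48-hour dose response in 96-well plates. GI50 is the concentration that inhibits growth by half.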 Activity calls are given as the source filed them. Cut-off read from the data, not from the text of the source: active = GI50 up to about 1.1 µM and inactive = higher.

What was measured:
Assay in all cases: NCI tumour cell line growth inhibition, 48 h
A549 = test system: A549
ACHN = test system: ACHN
HCT-116 = test system: HCT-116
IGROV-1 = test system: IGROV-1
LOX IMVI = test system: LOX IMVI
MDA-MB-231 = test system: MDA-MB-231
MDA-N = test system: MDA-N
MOLT-4 = test system: MOLT-4
Malme-3M = test system: Malme-3M
NCI-H460 = test system: NCI-H460
NCI/ADR-RES = test system: NCI/ADR-RES
OVCAR-4 = test system: OVCAR-4
OVCAR-5 = test system: OVCAR-5
RXF 393 = test system: RXF 393
SK-OV-3 = test system: SK-OV-3
SNB-19 = test system: SNB-19
SR = test system: SR
T47D = test system: T47D
TK-10 = test system: TK-10
U-251 = test system: U-251

Measured: GI50

O=C(c1ccccc1)C(Nc1ccc2ccccc2c1)c1ccccc1 (stereo not given)
inactive: A549 33.3 µM | ACHN 48.8 µM | HCT-116 15.7 µM | IGROV-1 29.7 µM | LOX IMVI 35.3 µM | MDA-MB-231 28.8 µM | MDA-N 7.05 µM | MOLT-4 8.41 µM | Malme-3M 30.2 µM | NCI-H460 21.2 µM | NCI/ADR-RES 25.2 µM | OVCAR-4 38.1 µM | OVCAR-5 > 52.7 µM | RXF 393 > 43.9 µM | SK-OV-3 40.7 µM | SNB-19 34.7 µM | SR 7.89 µM | T47D 11.3 µM | TK-10 29 µM | U-251 21.9 µM

Clc1ccc(Cc2nc3cc(CCN4CCN(c5ccccc5)CC4)ccc3[nH]2)cc1
inactive: A549 13.4 µM | ACHN 19.5 µM | HCT-116 12 µM | IGROV-1 27.5 µM | LOX IMVI 12.6 µM | MDA-MB-231 13 µM | MDA-N 15.3 µM | MOLT-4 6.62 µM | Malme-3M 15.7 µM | NCI-H460 12.9 µM | NCI/ADR-RES 19.1 µM | OVCAR-4 10.3 µM | OVCAR-5 26.1 µM | RXF 393 5.24 µM | SK-OV-3 17.9 µM | SNB-19 20.7 µM | SR 8.02 µM | T47D 7.01 µM | TK-10 12.8 µM | U-251 13 µM

Cc1ccc(C(=O)C(Cl)C(Cl)c2ccc(C)cc2)cc1 (stereo not given)
inactive: A549 21.9 µM | ACHN 1.72 µM | HCT-116 1.88 µM | IGROV-1 2.58 µM | LOX IMVI 1.87 µM | MDA-MB-231 5.14 µM | MDA-N 2.21 µM | MOLT-4 2.03 µM | Malme-3M 15.3 µM | NCI-H460 8.38 µM | NCI/ADR-RES 2.55 µM | OVCAR-4 2.33 µM | OVCAR-5 7.87 µM | RXF 393 7.46 µM | SK-OV-3 15.2 µM | SNB-19 8.2 µM | SR 1.82 µM | T47D 2.08 µM | TK-10 2.99 µM | U-251 3.46 µM
